# Experimental data: US8906825B2, “Herbicidal compositions comprising 4-amino-3-chloro-5-fluoro-6-(4-chloro-2-fluoro-3-methoxyphenyl) pyridine-2-carboxylic acid or a derivative thereof and triazolopyrimidine sulfonamides” (Dow AgroSciences LLC, priority 2012, dated 2014)
# How the values were obtained:
# Type in all cases: in vivo
# [1] = test system: SCPMA (sea clubrush); experiment: In-water applied herbicidal mixtures, transplanted paddy rice, greenhouse (Example II)
# Procedure: Weed seeds or nutlets of the desired test plant species were planted in puddled soil (mud) prepared by mixing a shredded, non-sterilized mineral soil (50.5 percent silt, 25.5 percent clay, and 24 percent sand, with a pH of about 7.6 and an organic matter content of about 2.9 percent) and water at a 1:1 volumetric ratio. The prepared mud was dispensed in 365 mL aliquots into 16-ounce (oz.) non-perforated plastic pots with a surface area of 86.59 square centimeters (cm^2) leaving a headspace of 3 centimeters in each pot. Mud was allowed to dry overnight prior to planting or transplanting. Rice seeds were planted in Sun Gro MetroMix® 306 planting mixture, which typically has a pH of 6.0 to 6.8 and an organic matter content of about 30 percent, in plastic plug trays. Seedlings at the second or third leaf stage of growth were transplanted into 840 mL of mud contained in 32-oz. non-perforated plastic pots with a surface area of 86.59 cm^2 4 days prior to herbicide application. The paddy was created by filling the headspace of the pots with 2.5 to 3 cm of water. When required to ensure good germination and healthy plants, a fungicide treatment and/or other chemical or physical treatment was applied. The plants were grown for 4-22 days in a greenhouse with an approximate 14 h photoperiod which was maintained at about 29′C during the day and about 26° C. during the night. Nutrients were added as Osmocote® (19:6:12, N:P:K+minor nutrients) at 2 g per 16-oz. pot and 4 g per 32-oz. pot. Water was added on a regular basis to maintain the paddy flood, and supplemental lighting was provided with overhead metal halide 1000-Watt lamps as necessary. The plants were employed for testing when they reached the first through fourth true leaf stage.
# Treatments consisted of the acid or esters of 4-amino-3-chloro-5-fluoro-6-(4-chloro-2-fluoro-3-methoxy-phenyl)pyridine-2-carboxylic acid (compound A) each formulated as an SC and various herbicidal components alone and in combination. Forms of compound A were applied on an acid equivalent basis.
# Other herbicidal components were applied on an active ingredient basis and included acetolactate synthase (ALS)-inhibiting herbicides (sulfonamide chemical class) penoxsulam formulated as Grasp® SC (GF-443), diclosulam formulated as Strongarm®, and cloransulam-methyl formulated as FirstRate®.
# Treatment requirements for each compound or herbicidal component were calculated based upon the rates being tested, the concentration of active ingredient or acid equivalent in the formulation, an application volume of 2 mL per component per pot, and an application area of 86.59 cm^2 per pot.
# For formulated compounds, a measured amount was placed in an individual 100 or 200 mL glass vial and was dissolved in a volume of 1.25% (v/v) Agri-Dex® crop oil concentrate to obtain each application solution.
# Applications were made by injecting with a pipetter appropriate amounts of the application solutions, individually and sequentially, into the aqueous layer of the paddy. Control plants were treated in the same manner with the solvent blank. Applications were made so that all treated plant material received the same concentrations of acetone and crop oil concentrate.
# The treated plants and control plants were placed in a greenhouse as described above and water was added as needed to maintain a paddy flood. After approximately 3 weeks the condition of the test plants as compared with that of the untreated plants was determined visually and scored on a scale of 0 to 100 percent where 0 corresponds to no injury or growth inhibition and 100 corresponds to complete kill.
# Colby's equation was used to determine the herbicidal effects expected from the mixtures (Colby, S. R. 1967. Calculation of the synergistic and antagonistic response of herbicide combinations. Weeds 15:20-22.).
# The following equation was used to calculate the expected activity of mixtures containing two active ingredients, A and B: Expected=A+B−(A×B/100)
# [2] = test system: ISCRU (Ischaemum rugosum Salisb., saramollagrass); experiment: Postemergence foliar-applied herbicidal mixtures, direct seeded rice, greenhouse (Example I)
# [3] = test system: IPOHE (Ipomoea hederacea Jacq., ivyleaf morningglory); experiment: as above
Structure (SMILES),Visual Weed Control (%) - 21 DAA SCPMA Obs ([1]; Compound A Benzyl Ester 48 gae/ha),Visual Weed Control (%) - 21 DAA SCPMA Obs ([1]; Compound A Benzyl Ester 96 gae/ha),Visual Weed Control (%) - 21 DAA ISCRU Obs ([2]; Compound A Benzyl Ester 8 gae/ha),Visual Weed Control (%) - 21 DAA ISCRU Obs ([2]; Compound A Benzyl Ester 16 gae/ha),Visual Weed Control (%) - 27 DAA IPOHE Obs ([3]; Compound A Benzyl Ester 4.38 gae/ha),Visual Weed Control (%) - 27 DAA IPOHE Obs ([3]; Compound A Benzyl Ester 8.75 gae/ha),Visual Weed Control (%) - 27 DAA IPOHE Obs ([3]; Compound A Benzyl Ester 17.5 gae/ha),Visual Weed Control (%) - 21 DAA SCPMA Obs ([1]; Penoxsulam 10 gai/ha),Visual Weed Control (%) - 21 DAA SCPMA Obs ([1]; Penoxsulam 20 gai/ha),Visual Weed Control (%) - 21 DAA SCPMA Obs ([1]; Penoxsulam 40 gai/ha),Visual Weed Control (%) - 21 DAA ISCRU Obs ([2]; Penoxsulam 10 gai/ha),Visual Weed Control (%) - 21 DAA ISCRU Obs ([2]; Penoxsulam 20 gai/ha),"Visual Weed Control (%) - 27 DAA IPOHE Obs ([3]; Penoxsulam 4.38 gai/ha, Table 3)","Visual Weed Control (%) - 27 DAA IPOHE Obs ([3]; Penoxsulam 8.75 gai/ha, Table 1)","Visual Weed Control (%) - 27 DAA IPOHE Obs ([3]; Penoxsulam 8.75 gai/ha, Table 2)","Visual Weed Control (%) - 27 DAA IPOHE Obs ([3]; Penoxsulam 8.75 gai/ha, Table 3)","Visual Weed Control (%) - 27 DAA IPOHE Obs ([3]; Penoxsulam 17.5 gai/ha, Table 1)","Visual Weed Control (%) - 27 DAA IPOHE Obs ([3]; Penoxsulam 17.5 gai/ha, Table 2)","Visual Weed Control (%) - 27 DAA IPOHE Obs ([3]; Penoxsulam 17.5 gai/ha, Table 3)"
"COc1c(Cl)ccc(-c2nc(C(=O)OCc3ccccc3)c(Cl)c(N)c2F)c1F [Compound A Benzyl Ester, benzyl ester of 4-amino-3-chloro-5-fluoro-6-(4-chloro-2-fluoro-3-methoxy-phenyl)pyridine-2-carboxylic acid]",0%,0%,20%,0%,10%,10%,10%,–,–,–,–,–,–,–,–,–,–,–,–
"COc1cnc(OC)n2nc(NS(=O)(=O)c3c(OCC(F)F)cccc3C(F)(F)F)nc12 [Penoxsulam, 2-(2,2-difluoroethoxy)-N-(5,8-dimethoxy[1,2,4]triazolo[1,5-c]pyrimidin-2-yl)-6-(trifluoromethyl)benzenesulfonamide, reference compound]",–,–,–,–,–,–,–,70%,88%,95%,0%,0%,10%,15%,15%,15%,20%,20%,20%
